Measurements taken from US20170044150A1, “IDENTIFICATION OF COMPOUNDS WHICH INHIBIT ATG8-ATG3 PROTEIN-PROTEIN INTERACTION AND THEIR USE AS ANTIPARASITICAL AGENTS” (THE JOHNS HOPKINS UNIVERSITY, priority 2014, published 2017).
Read-outs that look alike come from different tables or passages of the source.

Columns and labels:
[1] = tested on: P. falciparum 3D7 blood stages; conditions: asterisk / PubChem reported values; read-out: IC50 Blood stage, derived from the literature; cited from earlier work
[2] = target: PfAtg8-PfAtg3 interaction (Plasmodium falciparum, UniProt Q8IJK2); type: binding, P. falciparum
[3] = tested on: P. falciparum 3D7; test: SYBR Green I growth inhibition assay, blood stage; type: cell-based; conditions: Plasmodium falciparum
Protocol: P. falciparum blood stage culturing. P. falciparum 3D7 and FCR3 cultures were maintained using modified, previously published methods at 37° C., 2% hematocrit of human red blood cells (Science 1976, 193, 673-675). Complete culture media consisted of sterile RPMI 1640 media (Life Technologies), supplemented with 10% human serum, 0.005% hypoxanthine, and buffered with final concentrations of 0.6% HEPES and 0.26% NaHCO3. The FCR3 strain was maintained at 3% CO2 and 5% O2, 92% N2 atmosphere, while the 3D7 strain was maintained at 5% CO2, 5% O2, 90% N2 atmosphere.
SYBR Green I growth inhibition assay. 10 μL of 10× compound diluted in RPMI 1640 media (Gibco) with a constant concentration of 1% DMSO was added to a 96 well plate (Costar), 90 μL of 1.5% ring stage, synchronized with 5% w/v sorbitol P. falciparum 3D7 parasites, 1% hematocrit, in culture media with 10% v/v human serum with 10 μg/mL gentamycin. Each compound concentration and 1% v/v DMSO controls were run in triplicate. Plates were incubated at 37° C. in 5% O2, 5% CO2 and 90% N2 for 72 hours. Plates were frozen, thawed, and incubated with 100-μL 2× SYBR green in lysis buffer (20 mM Tris pH 7.5, 5 mM EDTA, 0.008% Saponin, 0.08% TritonX-100) in the dark for at least one hour. Fluorescence was measured with a plate reader (HTS 7000, Perkin Elmer) at excitation/emission wavelengths of 485/535 nm.
Plasmodium parasite growth inhibition assay. P. falciparum 3D7 parasites were cultured as previously described (J Med Chem 57:4521-4531(2014)). Briefly, the parasites were cultured in 10% v/v human serum with 10 μg/mL gentamycin and synchronized with 5% w/v sorbitol. 1.5% ring stage parasites were added to 96 well plates (Costar) containing serial dilutions, performed in triplicate, of compound in RPMI 1640 media (Gibco). Plates were incubated at 37° C. in 5% O2, 5% CO2, and 90% N2 for 72 h. Plates were frozen, thawed, and incubated with 100 μL 2× SYBR green in lysis buffer (20 mM Tris pH 7.5, 5 mM EDTA, 0.008% Saponin, 0.08% TritonX-100) in the dark for 1 h. Fluorescence was measured with a plate reader (HTS 7000, PerkinElmer) at excitation/emission wavelengths of 485/535 nm.

[4] = tested on: PfAtg8-PfAtg3 interaction; test: SPR protein-protein interaction assay, PfAtg8-PfAtg3 (VLS compounds); type: binding, P. falciparum; conditions: 500 μM
Protocol: Surface Plasmon Resonance (SPR) protein-protein interaction assay. All measurements were carried out on a BiaCore 3000 instrument. We used the previously described SPR competition assay to test inhibition of the PfAtg8-PfAtg3 and hLC3-hAtg3 interaction. The standard running buffer was 10 mM HEPES, 150 mM NaCl, 0.01% Tween 20, adjusted to pH 7.5. Prior to performing SPR assays, all solutions were sterile filtered and degassed for 1 h at room temperature. For small molecule inhibitor studies, the same running buffer was supplemented with 1% DMSO. All dose dependency measurements were carried out in triplicate and corrected for DMSO absorption effects using double referencing with interspersed blank injections and an untreated flow cell on the SPR chip and the SPR analysis software Scrubber 2.0 (BioLogics). For each interaction pair, a new CM5 SPR chip was used. To exclude surface decay during the experiment, positive control injections were interspersed every 12th injection. For all interaction studies, the Atg3 homologue was immobilized and the corresponding Atg8 partner was passed as an analyte over the chip in either the presence or absence of small molecule inhibitors, dissolved to 100 mM in 100% DMSO and tested at 500 μM final concentration. Prior to the immobilization of Atg3 to an SPR chip, a pH scouting from pH 6.0 to pH 4.0 in intervals of 0.5 pH units was carried out to determine the best pre-concentration conditions for immobilization. Briefly, flow cells of an SPR chip were activated using N-hydroxysuccinimide (NHS) and 1-ethyl-3-(3-dimethylaminopropyl)carbodiimide (EDC) for 7 min with a flow rate of 20 μl/min. For PfAtg3 immobilization, a solution of 50 μg/ml of PfAtg3 in 10 mM sodium acetate pH 5.0 was passed over one flow cell until >500 Response Units (RU) were captured. The same procedure was followed for the immobilization of hAtg3. Activated free binding sites on the chip were blocked using 1 M ethanolamine for an additional 7 min. All experiments were carried out at 25° C. with a 40 μl/min flow rate and 75 s contact time, followed by a 1 min dissociation time and a 25 μl regeneration injection of 2 M MgCl2.
The dose-response curves were used to determine the approximate concentration of analyte (PfAtg8 or hLC3) needed to obtain a particular response unit (RU), typically in the range of 100-150 RU's. A fixed amount of analyte was then passed over the chip resulting in at least 100-150 response units (RU) in the absence of small molecules.

[5] = inhibition of PfAtg8-PfAtg3 interaction

Sequence of PfAtg8-PfAtg3 interaction (Plasmodium falciparum, UniProt Q8IJK2) (Q8IJK2 whole entry C32I/C119S/C122S, form open): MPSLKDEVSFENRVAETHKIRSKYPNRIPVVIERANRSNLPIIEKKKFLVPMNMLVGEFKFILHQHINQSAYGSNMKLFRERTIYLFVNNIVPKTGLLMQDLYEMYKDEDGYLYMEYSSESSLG

For O=C(Nc1nc(-c2ccccn2)cs1)c1ccccc1Br [Compound 3, 2-bromo-N-(4-pyridin-2-yl-1,3-thiazol-2-yl)benzamide], the IC50 [1] is given as 1.58 µM.

For CN(C)c1ccc(N2C(N)=NC(N)=NC2(C)C)cc1 [Compound 5, 1-[4-(dimethylamino)phenyl]-6,6-dimethyl-1,3,5-triazine-2,4-diamine], the “IC50 SPR” value [2, 5] was “None”.

CCN(CC)CCCC(C)Nc1ccnc2cc(Cl)ccc12 (stereo not shown) [chloroquine, reference compound] showed an IC50 ([3]; 3D7) of 0.003 ± 0.002 µM.

For COC(OC)c1ccc(C(=O)Nc2nc(-c3ccccn3)cs2)cc1 [Compound 9, 4-(Dimethoxymethyl)-N-[4-(pyridin-2-yl)-1,3-thiazol-2-yl]benzamide], the IC50 ([3]; 3D7, two to three experiments, read-out: average IC50) was 1.48 ± 0.6 µM.

In the case of CSc1ccccc1C(=O)Nc1nc(-c2ccccn2)cs1 [Compound 2, 2-methylsulfanyl-N-(4-pyridin-2-yl-1,3-thiazol-2-yl)benzamide], the IC50 [1] is listed as 0.2 µM, the “LEAN (SPR)” value ([2]; -log (IC50)/number of heavy atoms) is listed as 0.22 and the IC50 ([2]; read-out: IC50 SPR, inhibition of PfAtg8-PfAtg3 interaction) is listed as 15 µM.

In the case of CCc1c(C(=O)NCc2csc(-c3cnccn3)n2)[nH]c2ccccc12 [Compound C19, 3-ethyl-N-([2-(pyrazin-2-yl)-1,3-thiazol-4-yl]methyl)-1H-indole-2-carboxamide], the “precipitation at the concentration used in the assay” value (“precipitation” for short) [4] is reported as “either precipitated or caused protein precipitation”.

In the case of O=C(NCC1Cc2cccc(-c3ccncc3)c2O1)c1csc2c1CCCC2 (stereo not shown) [Compound C11], the “precipitation” value [4] is reported as “either precipitated or caused protein precipitation”.

In the case of O=C(NCc1csc(-c2cnccn2)n1)c1cc2sccc2[nH]1 [Compound C30, N-([3-(pyrazin-3-yl)-1,3-thiazol-4-yl]methyl)-4H-thieno[3,2-b]pyrrole-5-carboxamide], the “precipitation” value [4] is reported as “either precipitated or caused protein precipitation”.

With Brc1ccc(Nc2nc3ccccc3nc2Nc2ccc(Br)cc2)cc1 [Compound 6, 2-N,3-N-bis(4-bromophenyl)quinoxaline-2,3-diamine] the “IC50 SPR” value [2, 5] was “None”.

In the case of Cc1ccc(-c2cc3c(SCC(=O)Nc4cc(C(F)(F)F)ccc4Cl)nccn3n2)cc1 [Compound 4, N-[2-chloro-5-(trifluoromethyl)phenyl]-2-[2-(4-methylphenyl)pyrazolo[1,5-a]pyrazin-4-yl]sulfanylacetamide], the “IC50 SPR” value [2, 5] is reported as “None”.

For O=C(NCc1ccco1)C1CCN(S(=O)(=O)c2ccc(Br)cc2)CC1 [Compound C13, 1-(4-bromobenzene-sulfonyl)-N-(furan-2-ylmethyl)piperidine-4-carboxamide], the “precipitation” value [4] was “either precipitated or caused protein precipitation”.
